In ChEMBL document CHEMBL5724914, “Linking interpersonal differences in gut microbiota composition and drug biotransformation activity” (2024):

How the values were obtained:
[1] = The drug is tested on WLS-039 corresponding to human gut metagenome with ENA study accession number: PRJEB37062 and ENA sample accession number: ERS12561746 for biotransformation under anaerobic condition. The drug concentrations were measured over 9 timepoints collected between 0 and 24 hours of incubation by liquid-chromatography-coupled mass spectrometry (LC–MS); conditions: 2 µM
[2] = The drug is tested on Z-029 corresponding to rat gut metagenome with ENA study accession number: PRJEB37062 and ENA sample accession number: ERS12561828 for biotransformation under anaerobic condition. The drug concentrations were measured over 9 timepoints collected between 0 and 24 hours of incubation by liquid-chromatography-coupled mass spectrometry (LC–MS); conditions: 2 µM
[3] = The drug is tested on Z-018 corresponding to pig gut metagenome with ENA study accession number: PRJEB37062 and ENA sample accession number: ERS12561817 for biotransformation under anaerobic condition. The drug concentrations were measured over 9 timepoints collected between 0 and 24 hours of incubation by liquid-chromatography-coupled mass spectrometry (LC–MS); conditions: 2 µM
[4] = The drug is tested on Z-020 corresponding to rabbit gut metagenome with ENA study accession number: PRJEB37062 and ENA sample accession number: ERS12561819 for biotransformation under anaerobic condition. The drug concentrations were measured over 9 timepoints collected between 0 and 24 hours of incubation by liquid-chromatography-coupled mass spectrometry (LC–MS); conditions: 2 µM
[5] = The drug is tested on WLS-098 corresponding to human gut metagenome with ENA study accession number: PRJEB37062 and ENA sample accession number: ERS12561754 for biotransformation under anaerobic condition. The drug concentrations were measured over 9 timepoints collected between 0 and 24 hours of incubation by liquid-chromatography-coupled mass spectrometry (LC–MS); conditions: 2 µM
[6] = human gut metagenome, 24 h, 2 µM
[7] = The drug is tested on Z-008 corresponding to metagenome with ENA study accession number: PRJEB37062 and ENA sample accession number: ERS12561808 for biotransformation under anaerobic condition. The drug concentrations were measured over 9 timepoints collected between 0 and 24 hours of incubation by liquid-chromatography-coupled mass spectrometry (LC–MS); conditions: 2 µM
[8] = The drug is tested on WLS-310 corresponding to human gut metagenome with ENA study accession number: PRJEB37062 and ENA sample accession number: ERS12561785 for biotransformation under anaerobic condition. The drug concentrations were measured over 9 timepoints collected between 0 and 24 hours of incubation by liquid-chromatography-coupled mass spectrometry (LC–MS); conditions: 2 µM
[9] = The drug is tested on WLS-006 corresponding to human gut metagenome with ENA study accession number: PRJEB37062 and ENA sample accession number: ERS12561741 for biotransformation under anaerobic condition. The drug concentrations were measured over 9 timepoints collected between 0 and 24 hours of incubation by liquid-chromatography-coupled mass spectrometry (LC–MS); conditions: 2 µM
[10] = human gut metagenome, 24 h, 2 µM; remark: listed apart in the source
[11] = The drug is tested on WLS-073 corresponding to human gut metagenome with ENA study accession number: PRJEB37062 and ENA sample accession number: ERS12561749 for biotransformation under anaerobic condition. The drug concentrations were measured over 9 timepoints collected between 0 and 24 hours of incubation by liquid-chromatography-coupled mass spectrometry (LC–MS); conditions: 2 µM
[12] = The drug is tested on WLS-069 corresponding to human gut metagenome with ENA study accession number: PRJEB37062 and ENA sample accession number: ERS12561748 for biotransformation under anaerobic condition. The drug concentrations were measured over 9 timepoints collected between 0 and 24 hours of incubation by liquid-chromatography-coupled mass spectrometry (LC–MS); conditions: 2 µM
[13] = The drug is tested on Z-022 corresponding to mouse gut metagenome with ENA study accession number: PRJEB37062 and ENA sample accession number: ERS12561821 for biotransformation under anaerobic condition. The drug concentrations were measured over 9 timepoints collected between 0 and 24 hours of incubation by liquid-chromatography-coupled mass spectrometry (LC–MS); conditions: 2 µM
[14] = The drug is tested on Z-019 corresponding to rat gut metagenome with ENA study accession number: PRJEB37062 and ENA sample accession number: ERS12561818 for biotransformation under anaerobic condition. The drug concentrations were measured over 9 timepoints collected between 0 and 24 hours of incubation by liquid-chromatography-coupled mass spectrometry (LC–MS); conditions: 2 µM
[15] = The drug is tested on WLS-038 corresponding to human gut metagenome with ENA study accession number: PRJEB37062 and ENA sample accession number: ERS12561745 for biotransformation under anaerobic condition. The drug concentrations were measured over 9 timepoints collected between 0 and 24 hours of incubation by liquid-chromatography-coupled mass spectrometry (LC–MS); conditions: 2 µM
[16] = human gut metagenome, 24 h, 2 µM; remark: listed apart in the source
[17] = human gut metagenome, 24 h, 2 µM; remark: listed apart in the source
[18] = human gut metagenome, 24 h, 2 µM; remark: listed apart in the source
[19] = The drug is tested on Z-028 corresponding to mouse gut metagenome with ENA study accession number: PRJEB37062 and ENA sample accession number: ERS12561827 for biotransformation under anaerobic condition. The drug concentrations were measured over 9 timepoints collected between 0 and 24 hours of incubation by liquid-chromatography-coupled mass spectrometry (LC–MS); conditions: 2 µM
[20] = human gut metagenome, 24 h, 2 µM; remark: listed apart in the source
Also: call rule not given here.

Row | Bacterial Biotransformation [1] | Bacterial Biotransformation [2] | Bacterial Biotransformation [3] | Bacterial Biotransformation [4] | Bacterial Biotransformation [5] | Bacterial Biotransformation [6] | Bacterial Biotransformation [7] | Bacterial Biotransformation [8] | Bacterial Biotransformation [9] | Bacterial Biotransformation [10] | Bacterial Biotransformation [11] | Bacterial Biotransformation [12] | Bacterial Biotransformation [13] | Bacterial Biotransformation [14] | Bacterial Biotransformation [15] | Bacterial Biotransformation [16] | Bacterial Biotransformation [17] | Bacterial Biotransformation [18] | Bacterial Biotransformation [19] | Bacterial Biotransformation [20] | SMILES
1 | Compound NOT metabolized | Compound NOT metabolized | Compound NOT metabolized | Compound NOT metabolized | Compound NOT metabolized | Compound NOT metabolized | Compound NOT metabolized | Compound NOT metabolized | Compound NOT metabolized | Compound metabolized | Compound NOT metabolized | Compound NOT metabolized | Compound metabolized | Compound NOT metabolized | Compound NOT metabolized | Compound NOT metabolized | Compound NOT metabolized | Compound NOT metabolized | Compound NOT metabolized | Compound NOT metabolized | CC(CCc1ccccc1)NCC(O)c1ccc(O)c(C(N)=O)c1 (stereo not given) [LABETALOL]
2 | Compound NOT metabolized | Compound NOT metabolized | Compound NOT metabolized | Compound NOT metabolized | Compound metabolized | Compound NOT metabolized | Compound NOT metabolized | Compound NOT metabolized | Compound NOT metabolized | Compound NOT metabolized | Compound NOT metabolized | Compound NOT metabolized | Compound NOT metabolized | Compound NOT metabolized | Compound NOT metabolized | Compound NOT metabolized | Compound NOT metabolized | Compound metabolized | Compound NOT metabolized | Compound NOT metabolized | Nc1nnc(-c2cccc(Cl)c2Cl)c(N)n1 [LAMOTRIGINE]
3 | Compound metabolized | Compound metabolized | Compound metabolized | Compound metabolized | Compound NOT metabolized | Compound metabolized | Compound NOT metabolized | Compound metabolized | Compound metabolized | Compound NOT metabolized | Compound metabolized | Compound metabolized | Compound metabolized | Compound NOT metabolized | Compound metabolized | Compound NOT metabolized | Compound NOT metabolized | Compound metabolized | Compound NOT metabolized | Compound metabolized | OC(c1cc(C(F)(F)F)nc2c(C(F)(F)F)cccc12)C1CCCCN1 (stereo not given) [MEFLOQUINE]
4 | Compound metabolized | Compound NOT metabolized | Compound metabolized | Compound metabolized | Compound metabolized | Compound metabolized | Compound NOT metabolized | Compound metabolized | Compound metabolized | Compound metabolized | Compound metabolized | Compound metabolized | Compound NOT metabolized | Compound NOT metabolized | Compound metabolized | Compound metabolized | Compound metabolized | Compound metabolized | Compound metabolized | Compound metabolized | CC(=O)O[C@]1(C(C)=O)CC[C@H]2[C@@H]3C=C(C)C4=CC(=O)CC[C@]4(C)[C@H]3CC[C@@]21C [MEGESTROL ACETATE]
5 | Compound metabolized | Compound NOT metabolized | Compound NOT metabolized | Compound NOT metabolized | Compound NOT metabolized | Compound NOT metabolized | Compound NOT metabolized | Compound NOT metabolized | Compound NOT metabolized | Compound NOT metabolized | Compound NOT metabolized | Compound NOT metabolized | Compound metabolized | Compound NOT metabolized | Compound NOT metabolized | Compound NOT metabolized | Compound NOT metabolized | Compound NOT metabolized | Compound NOT metabolized | Compound NOT metabolized | CC12CC3CC(C)(C1)CC(N)(C3)C2 [MEMANTINE]
